Measurements as given in ChEMBL document CHEMBL3124920, “Substituted Benzofurans as Inhibitors of HCV NS5B Protein” (ACS Med Chem Lett, 2014).

Key:
Hepatitis C virus = assay: Antiviral activity against Hepatitis C virus genotype 1b infected in human HuH7 cells after 3 days by luciferase reporter gene assay; type: functional, organism-based, Hepacivirus hominis; details: Huh-7, 72 h
[1] = Inhibition of HCV NS5B polymerase after 4 hrs by on-bead solid phase homogeneous assay; design: species or system Hepacivirus hominis

SMILES	EC50 (Hepatitis C virus) [µM]	IC50 [1] [µM]
CCNc1cc2oc(-c3ccc(F)cc3)c(-c3ncc[nH]3)c2c(F)c1-c1cc(C(=O)NC2(c3ncccn3)CC2)c(OC)cc1C	0.0072	–
COc1cc(C)c(-c2ccc3oc(-c4ccc(F)cc4)c(-c4ncc[nH]4)c3c2F)cc1C(=O)NC1(c2ncccn2)CC1	0.03	0.03
CCN(c1cc2oc(-c3ccc(F)cc3)c(-c3ncc[nH]3)c2c(F)c1-c1cc(C(=O)NC2(c3ncccn3)CC2)c(OC)cc1C)S(C)(=O)=O	0.009	–
